In patent US10251876B2, “Method for treating tumour, pharmaceutical composition and medicinal kit” (CHIA TAI TIANQING PHARMACEUTICAL GROUP CO., LTD., priority 2014, dated 2019):
Counter-ions that a name gives are not always drawn. Like-named read-outs stand apart in the source and are kept apart here. Values belong to the compound of their own block, whether it stands above or below them.

What was measured:
malignant tumor patients = test: Preliminary and overall therapeutic effect in malignant tumor patients; format: in vivo, human; conditions: continuous administration for two weeks and rest for one week
Protocol: The malignant tumor patients those were diagnosed definitely and had failed standard treatment or lacking standard treatment were recruited for phase I study of tolerance and preliminary therapeutic effect. The tolerance was observed when patients were administered 5 mg or 10 mg of the capsules of dihydrochloride of Compound I once daily respectively for at least 2 cycles continuously, wherein each cycle was 28 days.
After the adjustment of the dosage regimen, the malignant tumor patients those were diagnosed definitely and had failed standard treatment or lacking standard treatment were recruited, continuous administrating for 2 weeks and resting for 1 week were applied, i.e., 3 weeks (21 days) was a treatment cycle, and the observation of tolerance was continuously performed and maintained at least 2 cycles (42 days), and the observation of therapeutic effects was performed at the same time.

[1] = Pharmacokinetics of single administration in solid tumour subjects; format: in vivo; conditions: human, plasma, single oral administration
Protocol: (§1) All the solid tumour subjects participating in the tolerance research in Example 3 were performed a monitor of plasma concentration to evaluate pharmacokinetic parameters of the capsule of Compound I dihydrochloride. • (1) Pharmacokinetics of Single Administration
After beginning the tests, the qualified subjects took the capsule of Compound I dihydrochloride once and performed pharmacokinetic studies of single administration.

[2] = Pharmacokinetics of continuous administration (2 weeks, rest 1 week) in solid tumour subjects; format: in vivo; conditions: human, plasma, oral
Protocol: as §1
The qualified subjects took the drug once and performed pharmacokinetic monitor of single administration. After subjecting to at least 7 days of a washout period, pharmacokinetic studies of continuous administration were performed. One treating cycle has continuous administration for 2 weeks and rest for 1 week, and continuous monitor were applied for at least 2 cycles. A total of 21 subjects in 3 dose groups (10 mg, 16 mg and 12 mg, respectively) continuously took the capsules of Compound I dihydrochloride, while performing the monitor of plasma concentration.

Compound: COc1cc2c(Oc3ccc4[nH]c(C)cc4c3F)ccnc2cc1OCC1(N)CC1 [Compound I dihydrochloride, 1-[[[4-(4-fluoro-2-methyl-1H-indol-5-yl)oxy-6-methoxyquinolin-7-yl]oxy]methyl]cyclopropylamine dihydrochloride]
therapeutic effects, overall (malignant tumor patients): various tumours can benefit

AUC(0-inf) ([1]; 10 mg/person, n = 4, mean): 570 ng·h/mL
AUC(0-t) ([1]; 10 mg/person, n = 4, mean): 327 ng·h/mL
Cmax ([1]; 10 mg/person, n = 4, mean): 6.07 ng/mL
MRT ([1]; 10 mg/person, n = 4, mean): 142 h
Tmax ([1]; 10 mg/person, n = 4, mean): 6.75 h
half-life ([1]; 10 mg/person, n = 4, mean, read-out: t1/2 (converted)): 88.9 h
AUC(0-inf) ([1]; 12 mg/person, n = 11, mean): 1160 ng·h/mL
AUC(0-t) ([1]; 12 mg/person, n = 11, mean): 938 ng·h/mL
Cmax ([1]; 12 mg/person, n = 11, mean): 11.3 ng/mL
MRT ([1]; 12 mg/person, n = 11, mean): 162 h
Tmax ([1]; 12 mg/person, n = 11, mean): 8.73 h
half-life ([1]; 12 mg/person, n = 11, mean, read-out: t1/2 (converted)): 92 h
AUC(0-inf) ([1]; 16 mg/person, n = 4, mean): 1720 ng·h/mL
AUC(0-t) ([1]; 16 mg/person, n = 4, mean): 1330 ng·h/mL
Cmax ([1]; 16 mg/person, n = 4, mean): 16.1 ng/mL
MRT ([1]; 16 mg/person, n = 4, mean): 163 h
Tmax ([1]; 16 mg/person, n = 4, mean): 10 h
half-life ([1]; 16 mg/person, n = 4, mean, read-out: t1/2 (converted)): 96.7 h
half-life ([1]; read-out: half-life period (t1/2)): 80 to 100 h
Cmax ([2]; 10 mg/person, n = 3, average (RSD %)): 64.9 ng/mL
Cmax ([2]; 12 mg/person, n = 15, average (RSD %)): 67 ng/mL
Cmax ([2]; 16 mg/person, n = 3, average (RSD %)): 93.1 ng/mL
Compound: COc1cc2c(Oc3ccc4[nH]c(C)cc4c3F)ccnc2cc1OCC1(N)CC1 [Compound I, 1-[[[4-(4-fluoro-2-methyl-1H-indol-5-yl)oxy-6-methoxyquinolin-7-yl]oxy]methyl]cyclopropylamine]
